Reference: patent EP2874643B1, “OSTEOPROTEGERIN DERIVED COMPOSITION AND USE THEREOF” (R-Pharm International, LLC, priority 2012, dated 2013)
Marks after values point to notes of the source that are not given here.

Key:
[1] = system: MDA-MB-468 human breast cancer cells; conditions: mouse, in vivo
[2] = system: MDA-MB-468 human breast cancer cells; experiment: murine bone lytic model of human breast cancer (intratibial inoculation); conditions: 0.1 mg/kg, i.v.; for Mean X-Ray Score of Bone Lysis in Inoculated Tibiae: scale 0 (no lysis) to 4, enlarged muscle + 0.5
[3] = target: RANKL (receptor activator of NF-kappaB ligand); experiment: cell-based or functional assay
[4] = MicroCT scan of inoculated tibia at termination, mean

**Q.** Which results are given for O=P(O)(O)C(O)(Cn1ccnc1)P(=O)(O)O [Zometa, Zoledronic Acid]?
**A.** adverse clinical signs [1]: No adverse clinical signs were observed; Survival (Number Alive/Total) ([2]; 3 times weekly for 6 weeks, end of study): 12/12; Mean X-Ray Score of Bone Lysis in Inoculated Tibiae ([2]; 6 weeks Post-Inoculation): 0.2 ^a; Mean X-Ray Score of Bone Lysis in Inoculated Tibiae ([2]; 8 weeks Post-Inoculation): 0.5 ^a; Structure Model Index (SMI) [2, 4]: 1.831 ^a; Total Bone Volume (TBV) [2, 4]: 6.799 ^a mm^3; Trabecular Bone Volume 3 (Tb.BV) [2, 4]: 0.614 ^a mm^3; Trabecular Pattern Factor (Tb.Pf) [2, 4]: 10.458 ^a mm^--1

**Q.** With “hOPG-hIgG1-Fc polypeptide of SEQ ID NO. 1 (Fc fusion)” as the molecule, how does the concentration that completely blocks RANKL-induced osteoclast differentiation (RAW264.7 cells) [3] read?
**A.** 100 ng/mL

**Q.** And the inhibition of RANKL-induced osteoclast differentiation (RAW264.7 cells), EC50 [3]?
**A.** 0.05 µg/mL
